Data as given in patent publication US20260355318A1, “MOLECULAR MACHINES FOR TREATMENT OF CANCER, FUNGAL INFECTIONS, OR BACTERIAL INFECTIONS” (priority 2022, published 2026).

What was measured:
[1] = Estimated rotation rate after light activation; conditions: based on known motors with similar core skeletons
P. aeruginosa [2] = assay: Time-kill / light-dose experiments, P. aeruginosa; type: cell-based, Pseudomonas aeruginosa; conditions: for light dose for complete eradication: 0.625 to 5 μM of MM, 405 nm; for time to reduce cell number to limit of detection: 2×MIC, 146 mW cm^−2 405 nm
Method: (§1) Serial dilutions of irradiated cell suspensions were prepared in PBS. A volume of 10 AL of the appropriate serial dilutions was spot-plated onto LB agar plates. Following overnight incubation at 30 or 37 ° C, depending on the strain, bacterial viability was assessed as colony forming units (CFU) per mL. Results were expressed as log (N/NO) whereby N is the CFU mL^−1 at each irradiation time point and NO is the initial CFU mL^−1 of the corresponding sample. Only dilutions that yielded 10-100 colonies were counted.

B. cereus = assay: MIC, B. cereus; type: cell-based; conditions: Bacillus cereus, read-out: MIC of MM
Method: (§2) The appropriate volume of an MM stock at 8 mM necessary to achieve a concentration ranging from 0.3125 to 40 μM was pipetted into a 2 mL microcentrifuge tube to which 1 mL of cell suspension prepared as previously described was added. Corresponding negative controls (DMSO only) were prepared in the same way. The mixture was gently mixed by pipetting and incubated in the dark at 30 or 37 ° C, depending on the strain, for 30 min with agitation (220 rpm). Afterward, MM- or DMSO-treated cells were dispensed in one well of a 24-well plate positioned in the center of the light beam (405 nm LED Light, Prizmatix, UHP—F-5-405) placed at the appropriate distance necessary to achieve the desired light intensity of 304 mW cm-2, 146 mW cm2 or 87 mW cm2, as measured with a handheld digital power meter console coupled to an S415C thermal power sensor head (Thorlabs, Newton, MA, USA). The temperature during irradiation was monitored using a thermocouple probe (Model SC-TT-K-30-36-PP; Omega Engineering, Inc., Stanford, CT, USA). Samples were agitated during irradiation. Dark controls were prepared as previously described except that no irradiation was provided. […]

[3] = system: human embryonic kidney cells (HEK); assay: Toxicity to HEK cells (CellTiter-Glo); type: cell-based; conditions: HEK293, 5 min, 405 nm light 146 mW cm^−2, 5 min, read-out: IC50 (HEK viability)
Method: Biocompatibility of MM with primary NHDF and HEK293T cells was assessed using the CellTiter-Glo® Luminescent Cell Viability Assay (Promega), per the manufacturer's instructions. The MM concentrations that reduced cell viability by 50% (IC50) were identified and the therapeutic index was calculated as the ratio between the IC50 and the MIC at a light intensity of 146 mW cm^−2.

A. baumannii = assay: MIC, A. baumannii; type: cell-based, Acinetobacter baumannii; conditions: for MIC of MM: A. baumannii, 405 nm light; for MIC: Acinetobacter baumannii, read-out: MIC of MM
Summary of the method: (§3)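 Cell suspensions were exposed to compound at 0.3125-40 μM for 30 min in the dark, with agitation, at 30 or 37 °C depending on strain. Each sample was then irradiated with 405 nm light at 146 mW cm^−2 for 5 min (43.8 J cm^−2), inoculated into MHB and incubated overnight. MIC was read as the lowest concentration without visible growth, alongside non-irradiated controls.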

B. cepacia = assay: MIC, B. cepacia; type: cell-based; conditions: Burkholderia cepacia, read-out: MIC of MM
Method: as §2

P. aeruginosa [4] = assay: MIC, P. aeruginosa; type: cell-based, Pseudomonas aeruginosa; conditions: Pseudomonas aeruginosa, read-out: MIC of MM
Method: The appropriate volume of an MM stock at 8 mM necessary to achieve a concentration ranging from 0.3125 to 40 μM was pipetted into a 2 mL microcentrifuge tube to which 1 mL of cell suspension prepared as previously described was added. Corresponding negative controls (DMSO only) were prepared in the same way. The mixture was gently mixed by pipetting and incubated in the dark at 30 or 37 ° C, depending on the strain, for 30 min with agitation (220 rpm). Afterward, MM- or DMSO-treated cells were dispensed in one well of a 24-well plate positioned in the center of the light beam (405 nm LED Light, Prizmatix, UHP—F-5-405) placed at the appropriate distance necessary to achieve the desired light intensity of 304 mW cm-2, 146 mW cm2 or 87 mW cm2, as measured with a handheld digital power meter console coupled to an S415C thermal power sensor head (Thorlabs, Newton, MA, USA). The temperature during irradiation was monitored using a thermocouple probe (Model SC-TT-K-30-36-PP; Omega Engineering, Inc., Stanford, CT, USA). Samples were agitated during irradiation. Dark controls were prepared as previously described except that no irradiation was provided.
For MIC determination, samples treated with a range of concentrations of the different MM, as described above and were irradiated one at a time for 5 min at 146 mW cm^−2 (43.8 J cm^−2), after which irradiated aliquots were collected and inoculated into 1 mL MHB in a 2 mL microcentrifuge tube. Samples were incubated overnight at 30 or 37 ° C, depending on the strain, without agitation. Corresponding non-irradiated samples and negative controls (without bacteria) were also included. The following day, cultures were inspected for growth and the MIC was identified. The experimental procedure used to determine the MIC of visible light-activated MMs is schematically depicted in FIG. 26.

E. coli [5] = assay: Tetracycline uptake; type: cell-based, Escherichia coli; conditions: 0.5×MIC MM pre-treatment, vs DMSO
Method: The ability of pre-treatment with subinhibitory concentrations of MMs to potentiate antibiotic killing was further evaluated by monitoring the fluorescence of tetracycline uptake. […] Irradiated cell suspensions were then collected, and tetracycline (128 μg mL^−1 final concentration) was added. A volume of 100 μL per well of tetracycline amended cell suspension was transferred to a black 96-well plate and fluorescence was read every 5 min for 60 min at room temperature in a microplate reader (Ex: 405 nm, Em: 535 nm) (BioTek Instruments Inc, Winooski, VT, USA). Results were expressed as RFU corrected for fluorescence in the absence of cells.

S. aureus = assay: MIC, S. aureus; type: cell-based, Staphylococcus aureus; conditions: for MIC of MM: S. aureus; for MIC: Staphylococcus aureus, read-out: MIC of MM
Summary of the method: as §3

S. epidermidis = assay: MIC, S. epidermidis; type: cell-based; conditions: Staphylococcus epidermidis, read-out: MIC of MM
Method: as §2

E. coli [6] = assay: Time-kill / light-dose experiments, E. coli; type: cell-based, Escherichia coli; conditions: E. coli; for light dose for complete eradication: highest concentration of MM (5 μM), 405 nm
Method: as §1

[7] = system: Gram-negative and Gram-positive strains; assay: MIC comparison Gram-positive versus Gram-negative strains (incl. MRSA); type: cell-based; conditions: FIG. 33C
From the text: The dotted line denotes the limit of detection of the method. Results are the means of at least 3 biological replicas #standard error of the mean. (FIG. 33B) MIC value of MM 1, MM 5, MM 6 in different Gram-negative and Gram-positive strains, including MRSA. Bars represent the results from at least 3 biological replicas. Unless otherwise noted, results for MM and DMSO are always reported in the presence of light. (FIG. 33C) Box and whiskers plot (median values with min/max range) of the MIC values of MM 1, MM 5, and MM 6 among the Gram-negative and Gram-positive strains examined in this study. * P<0.05; ns, not significant.
The appropriate volume of an MM stock at 8 mM necessary to achieve a concentration ranging from 0.3125 to 40 μM was pipetted into a 2 mL microcentrifuge tube to which 1 mL of cell suspension prepared as previously described was added. Corresponding negative controls (DMSO only) were prepared in the same way. […] Afterward, MM- or DMSO-treated cells were dispensed in one well of a 24-well plate positioned in the center of the light beam (405 nm LED Light, Prizmatix, UHP—F-5-405) placed at the appropriate distance necessary to achieve the desired light intensity of 304 mW cm-2, 146 mW cm2 or 87 mW cm2, as measured with a handheld digital power meter console coupled to an S415C thermal power sensor head (Thorlabs, Newton, MA, USA). […]

| Structure (SMILES) | estimated rotation rate after light activation [1] | light dose for complete eradication (P. aeruginosa [2]) | time to reduce cell number to limit of detection (P. aeruginosa [2]) | MIC (B. cereus) | IC50 [3] | MIC of MM (A. baumannii) | MIC (A. baumannii) | MIC (B. cepacia) | MIC (P. aeruginosa [4]) | intracellular tetracycline fluorescence (E. coli [5]) | MIC of MM (S. aureus; Table 9, 405 nm light 43.8 J cm^−2) | MIC (S. aureus) | MIC (S. epidermidis) | time to reduce cell number to limit of detection (E. coli [6]; 2×MIC, 146 mW cm^−2 405 nm) | light dose for complete eradication (E. coli [6]) | median MIC in Gram-positive versus Gram-negative bacteria [7] | MIC of MM (S. aureus; 405 nm light) |
| --- | --- | --- | --- | --- | --- | --- | --- | --- | --- | --- | --- | --- | --- | --- | --- | --- | --- |
| C[C@@H]1Cc2ccc3ccccc3c2/C1=C1\c2ccccc2Sc2cc(NCCN)ccc21 (racemic) [MM 6, N^1-(9-(2-methyl-2,3-dihydro-1H-cyclopenta[a]naphthalen-1-ylidene)-9H-thioxanthen-3-yl)ethane-1,2-diamine] | 3 MHz | 16 J cm^−2 | 10 min | 10 µM | 5 µM | 2.5 µM | 2.5 µM | 10 µM | 0.625 µM | substantial increase in intracellular tetracycline fluorescence | 0.078 | 0.078 µM | 0.078 µM | 4 min | at least 40 J cm^−2 | significant differences in the MIC between the two bacterial groups were not observed | – |
| C[C@@H]1Cc2ccc3ccccc3c2/C1=C1\c2ccccc2Sc2cc(NCCN(C)C)ccc21 [MM 1, N^1N^1-dimethyl-N^2-(9-(2-methyl-2,3-dihydro-1H-cyclopenta[a]naphthalen-1-ylidene)-9H-thioxanthen-3-yl) ethane-1,2-diamine] | 3 MHz | 16 J cm^−2 | 3 min | 10 µM | 5 µM | 2.5 µM | 2.5 µM | 10 µM | 0.625 µM | substantial increase in intracellular tetracycline fluorescence | – | 0.156 µM | 0.078 µM | – | at least 40 J cm^−2 | significant differences in the MIC between the two bacterial groups were not observed | 0.156 µM |
